Laboratory results reported in patent US20250340593A1, “METHOD AND COMPOSITION FOR TREATING NEURODEGENERATIVE DISORDER” (priority 2022, published 2025).
Residues, ends and D or L forms follow the SMILES beside them.

Columns and labels:
monomeric Aβ42 = biological target: T1, monomeric Aβ42 (Homo sapiens, UniProt P05067); test: Thioflavin-T assay of Aβ42 aggregation kinetics; assay type: biochemical; conditions: for inhibition of fibril formation (normalized ThT fluorescence): 15 μM monomeric Aβ, equimolar peptide, 24 hours; for ThT fluorescence of peptide alone: highest concentration of peptide alone, no Aβ
T1 construct: purchased Bachem; host or cells: chemical synthesis
T1 sequence (P05067 672-713 limits assumed): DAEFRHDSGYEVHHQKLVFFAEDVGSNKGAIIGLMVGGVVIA
Protocol: Thioflavin-T (ThT) assays were performed in black polystyrene 384-well plates with transparent bottom using a Tecan microplate reader with a set of excitation/emission wavelengths of 450/490 nm. Monomeric Aβ42 was prepared as described above and blocking or control peptides (BP ou CP) were used at indicted concentrations, ranging from 0.5 to 15 μM. The final concentration of ThT and monomeric AB42 was used at 15 μM in PBS buffer (pH 7.4), with a total reaction volume per well of 110 μL. The plate was sealed with a transparent plastic film and incubated at 37° C. prior to fluorescence measurement. ThT fluorescence intensity was monitored every 5 min over 24 h at 37° C. without agitation. Three replicates per condition were measured.

[1] = biological target: T2, biotinylated Aβ42 oligomers (Aβo (42)) (Homo sapiens, UniProt P05067); test: Peptide array probed with biotinylated Aβ42 oligomers; assay type: binding; conditions: biotinylated Aβo 0.1 to 10 μg.mL-1, BP result at the lowest concentration (0.1 μg/ml-1)
T2 construct: purchased Bachem; host or cells: chemical synthesis
T2 sequence (P05067 672-713 limits assumed): as above
Protocol: In the context of the invention, cellulose-bound peptide arrays encompassing the heparin binding domain and the C-terminal human VEGF sequence (UniProtKB #P15692) were synthesized by Proteomic Solutions. Overlapping 15-mer peptides were shifted by 3 aa and two copies of the same array were spotted on the slide for quality control and reproducibility. Arrays were blocked for 2 h in Tris buffered saline, 1% Tween 20, 5% BSA to prevent unspecific binding, and were subsequently probed for 15 h at 4° C. with biotinylated AB42 oligomers (Aβo (42)) using concentrations varying from 0.1 to 10 μg.mL-1 or vehicle used as a control. After washing in TBS 1% Tween 20, peptide arrays were incubated with HRP-conjugated Streptavidin for 2 h at RT. Aβo interaction was detected using SuperSignal West Pico PLUS chemiluminescent substrate and non-specific Aβ binding was determined using the control peptide (CP) spotted on the peptide array. […]
Cellulose-bound peptide arrays encompassing the heparin binding domain and the C-terminal human VEGF sequence (UniProtKB #P15692) were synthesized by Proteomic Solutions. […] Aβo interaction was detected using SuperSignal West Pico PLUS chemiluminescent substrate and non-specific Aβ binding was determined using the control peptide (CP) spotted on the peptide array. […]

[2] = biological target: T3, Aβo-VEGF interaction (recombinant human VEGF165) (Homo sapiens, UniProt P05067); test: Competitive ELISA of Aβo binding to immobilized VEGF; conditions: for inhibition of the binding of Aβo to VEGF: biotinylated Aβ42 oligomers 2.1 μM, peptide 10 nM to 100 μM
T3 construct: purchased Bachem
T3 sequence (P05067 672-713 limits assumed): as above
Protocol: Competitive ELISA experiments were performed to analyze the ability of the BP to impede AB42 oligomers binding to VEGF. For these assays, recombinant human VEGF165 (500 ng/ml-1) was immobilized in the 96-well microplate as the capture antigen and incubated overnight at 4° C. The following day, biotinylated AB42 oligomers were precubated at 2.1 μM for 1 h at RT with various concentrations of the CP or BP ranging from 10 nM to 100 μM. After 3 rinces with PBS 0.05% Tween 20, the mix was added in triplicate and incubated for 2 h at RT. Next, a washing step was performed followed by an incubation with the HRP-conjugated streptavidin for 20 min, additional rinces and finally the substrate solution containing TMB and H2O2. Absorbance was measured using a TECAN microplate reader.

Aβ42 oligomers (Aβo) = biological target: T4, Aβ42 oligomers (Aβo) (Homo sapiens, UniProt P05067); test: Indirect ELISA, binding of coated peptide to biotinylated Aβ42 oligomers; conditions: peptide coated at 5 μM
T4 construct: purchased Bachem; host or cells: chemical synthesis
T4 sequence (P05067 672-713 limits assumed): as above
Protocol: The binding of the CP or BP to synthetic biotinylated Aβ42 oligomers (Aβo) or AB40 monomers (Aβm) was determined by indirect ELISA in which the CP or BP were used as the capture antigens and the biotin tag of the biotinylated Aβ peptides for the detection. 96-well clear polystyrene microplate (BioTechne DY990) were coated overnight at 4° C. with 5 μM of the CP or BP in PBS, pH 7.4. After immobilization, the plate was washed three times with PBS 0.05% Tween 20 and various concentrations of biotinylated Aβ peptides were added in triplicate from 0.1 μg.mL-1 to 10 μg.mL-1 (21 nM to 2.1 μM for Aβo (42), 22 nM to 2.2 μM for Aβm (40) and incubated for 2 h at RT. After additional washes with PBS 0.05% Tween 20, HRP-conjugated streptavidin (1/40) was added for 20 min at RT, followed by a washing step and an incubation in substrate solution containing 3,3′,5,5′-Tetramethylbenzidine (TMB) and H2O2. The reaction was stopped by H2SO4. Absorbance was successively measured at 450 and 540 nm with a TECAN microplate reader and optical density values at 540 nm were subtracted from the ones at 450 nm to correct for optical imperfections of the plate. Unspecific Aβ binding to the microplate was determined using non-coated wells.

Aβ preparation (30 μM) = biological target: T5, Aβ preparation (30 μM) (Homo sapiens, UniProt P05067); test: Transmission electron microscopy of Aβ aggregates; conditions: for morphology of Aβ aggregates by TEM: Aβ 30 μM with equimolar peptide, 24 h
T5 construct: purchased Bachem; host or cells: chemical synthesis
T5 sequence (P05067 672-713 limits assumed): as above
Protocol: Prior to imaging, 10 μL of an Aβ preparation (30 μM) aggregated for 24 h at 37° C. in the presence or absence of equimolar concentration of the CP or BP were deposited onto Formvar-C coated mesh nickel grids. After a 10 min incubation step at RT, grids were rinsed with sterile dH20. Samples were subsequently stained using 5% uranyl acetate for 1 minute in the dark to increase contrast and were allowed to air dry for 2 minutes. Finally, they were visualized with a JEM 1400 Transmission Electron Microscope (Jcol Tokyo, Japan), operating at 120 kV, initially imaged at low magnification (20,000X), and thereafter at 120,000X using a Gatan Orius 1000 digital micrograph software.

Row | Compound | inhibition of fibril formation (normalized ThT fluorescence) (monomeric Aβ42) | ThT fluorescence of peptide alone (monomeric Aβ42) | labeling of peptide spot by biotinylated Aβo [1] | inhibition of the binding of Aβo to VEGF [2] | binding to Aβo (Aβ42 oligomers (Aβo); ELISA) | morphology of Aβ aggregates by TEM (Aβ preparation (30 μM)) | self-assembly structures of peptide alone by TEM (Aβ preparation (30 μM)) | steepness of the exponential phase corresponding to Aβ42 nucleation (monomeric Aβ42; peptide 0.5 to 15 μM, 15 μM Aβ42) | Ki [2] | Kd (Aβ42 oligomers (Aβo); ELISA titration binding curves)
1 | NDYKDDDDKGAAA [CP, reference compound] | no significant effect | does not induce any increase in ThT fluorescence | no labelling | did not inhibit | fails to bind | characteristic twisted morphology | does not induce any 3-dimensional self-assembly structures |  |  | 
2 | CC(C)[C@H](NC(=O)[C@H](Cc1ccc(O)cc1)NC(=O)[C@@H](NC(=O)[C@H](CO)NC(=O)[C@H](Cc1c[nH]c2ccccc12)NC(=O)[C@H](CO)NC(=O)[C@H](CCCCN)NC(=O)[C@H](Cc1ccc(O)cc1)NC(=O)[C@H](CCCNC(=N)N)NC(=O)[C@H](CO)NC(=O)[C@H](CCCCN)NC(=O)[C@H](CCCCN)NC(=O)[C@H](CCCNC(=N)N)NC(=O)[C@@H](N)CCCCN)C(C)C)C(=O)NCC(=O)O [BP, KRKKSRYKSWSVYVG] (H-KRKKSRYKSWSVYVG-OH; N-terminus and C-terminus assumed) | 95% | does not induce any increase in ThT fluorescence | clear staining | clear dose-dependent reduction |  | mainly non-fibrillar and amorphous in shape | does not induce any 3-dimensional self-assembly structures | decreases with increasing concentrations | 340 nM | 12 nM
